IC50 data for 39 compounds are collected here from patent US12692235B2, “Fused ring compound and application thereof” (WUHAN LL SCIENCE AND TECHNOLOGY DEVELOPMENT CO., LTD., priority 2019, dated 2026).

This experiment addresses T1, hP2X4 (human purinergic P2X receptor subtype 4) (Homo sapiens, UniProt Q99571).
T1 sequence (Q99571 1-404 isoform Q99571-2): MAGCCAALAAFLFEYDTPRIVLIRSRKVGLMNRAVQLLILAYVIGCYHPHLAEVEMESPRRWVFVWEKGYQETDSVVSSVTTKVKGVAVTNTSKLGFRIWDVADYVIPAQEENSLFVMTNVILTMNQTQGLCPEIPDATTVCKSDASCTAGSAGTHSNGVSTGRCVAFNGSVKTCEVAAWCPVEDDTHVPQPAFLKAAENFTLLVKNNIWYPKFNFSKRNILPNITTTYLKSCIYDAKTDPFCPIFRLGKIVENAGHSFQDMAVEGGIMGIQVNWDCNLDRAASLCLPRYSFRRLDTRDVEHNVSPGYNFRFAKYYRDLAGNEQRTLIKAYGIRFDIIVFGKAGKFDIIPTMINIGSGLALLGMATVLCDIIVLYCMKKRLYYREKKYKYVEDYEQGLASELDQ
Particulars: P2X4 IC50 (nM), HEK293 cells stably expressing hP2X4; agonist BZ-ATP 2.5 μM; FLIPR calcium.
Procedure: Cells at 400,000 cells/mL were seeded into a 384-well plate (10,000 cells/well) 18-24 h prior to the FLIPR experiment and then incubated overnight in a cell incubator. […] Each well was added with 20 μL of 0.5×Calcium 6 fluorescent dye (Molecular Devices, R8190) and then the cells were subjected to dye-loading incubation at 37° C. for 1.5 h. Each well was added with 10 μL of respective test compound (dissolved in DMSO at a concentration of 10 mM and serially diluted with buffer) or vehicle and the mixture was equilibrated for 30 min at room temperature.
For the compound `NS(=O)(=O)c1cc(NC(=O)Cc2ccccc2Cl)cc2c(OC(F)F)nccc12` [Compound 28, 2-(2-chlorophenyl)-N-(1-(difluoromethoxy)-5-sulfamoylisoquinolin-7-yl)acetamide], the IC50 is less than 10 nM.

`NS(=O)(=O)c1cc(NC(=O)Cc2ccccc2Cl)cc2ncccc12` [Compound 4, 2-(2-chlorophenyl)-N-(5-sulfamoylquinolin-7-yl)acetamide]: the IC50 was 10 to 50 nM.

On to `COc1ccc(F)cc1CC(=O)Nc1cc(S(N)(=O)=O)c2ccnc(OC)c2c1` [Compound 95, 2-(5-fluoro-2-methoxyphenyl)-N-(1-methoxy-5-sulfamoylisoquinolin-7-yl)acetamide], for which the IC50 lay in the range of 200 to 5000 nM.

As to `NS(=O)(=O)c1cc(NC(=O)Cc2ccccc2Cl)cc2c1CCNC2` [Compound 98, 2-(2-chlorophenyl)-N-(5-sulfamoyl-1,2,3,4-tetrahydroisoquinolin-7-yl)acetamide], the IC50 fell in the range of 200 to 5000 nM.

Regarding `NS(=O)(=O)c1cc(NC(=O)Cc2ccccc2Cl)cc2cc(-n3ccnc3)ncc12` [Compound 50, N-(3-(1H-imidazol-1-yl)-8-sulfamoylisoquinolin-6-yl)-2-(2-chlorophenyl)acetamide], the IC50 fell in the range of 200 to 5000 nM.

As to `NS(=O)(=O)c1cc(NC(=O)Cc2ccccc2Cl)cc2c(OCCC3CC3)nccc12` [Compound 17, 2-(2-chlorophenyl)-N-(1-(2-cyclopropylethoxy)-5-sulfamoylisoquinolin-7-yl)acetamide], the IC50 was in the range of 50 to 200 nM.

With `NS(=O)(=O)c1cc(NC(=O)Cc2ccccc2Cl)cc2ccncc12` [Compound 45, 2-(2-chlorophenyl)-N-(8-sulfamoylisoquinolin-6-yl)acetamide], the IC50 was in the range of 50 to 200 nM.

On to `COC(=O)N1CCCc2c1cc(NC(=O)Cc1ccccc1Cl)cc2S(N)(=O)=O` [Compound 46, methyl 7-(2-(2-chlorophenyl)acetamido)-5-sulfamoyl-3,4-dihydroquinoline-1(2H)-carboxylate], for which the IC50 fell in the range of 200 to 5000 nM.

`NS(=O)(=O)c1cc(NC(=O)Cc2ccccc2Cl)cc2c1CCN(C(=O)c1ccccc1)C2` [Compound 106, N-(2-benzoyl-5-sulfamoyl-1,2,3,4-tetrahydroisoquinolin-7-yl)-2-(2-chlorophenyl)acetamide]: the IC50 was in the range of 10 to 50 nM.

Turning to `NS(=O)(=O)c1cc(NC(=O)Cc2ccccc2Cl)cc2c(=O)[nH]ccc12` [Compound 43, 2-(2-chlorophenyl)-N-(1-oxo-5-sulfamoyl-1,2-dihydroisoquinolin-7-yl)acetamide], the IC50 was 200 to 5000 nM.

On to `NS(=O)(=O)c1cc(NC(=O)Cc2ccccc2Cl)cc2c(F)cncc12` [Compound 47, 2-(2-chlorophenyl)-N-(4-fluoro-8-sulfamoylisoquinolin-6-yl)acetamide], for which the half-maximal inhibitory concentration (IC50) was in the range of 50 to 200 nM.

On to `NS(=O)(=O)c1cc(NC(=O)Cc2ccccc2Cl)cc2c1CCN(C(=O)C1CC1)C2` [Compound 108], for which the IC50 was less than 10 nM.

Turning to `NS(=O)(=O)c1cc(NC(=O)Cc2ccccc2Cl)cc2c1CCN(C(Cl)Cl)C2` [Compound 115, 2-(2-chlorophenyl)-N-(2-(dichloromethyl)-sulfamoyl-1,2,3,4-tetrahydroisoquinolin-7-yl)acetamide], the IC50 was in the range of 200 to 5000 nM.

Consider `NS(=O)(=O)c1cc(NC(=O)Cc2ccccc2Cl)cc2nc(N3CCCC3)ccc12` [Compound 89, (2-chlorophenyl)-N-(2-(pyrrolidin-1-yl)-5-sulfamoylquinolin-7-yl)acetamide], for which the IC50 lay in the range of 200 to 5000 nM.

As to `COCCOc1cc2c(S(N)(=O)=O)cc(NC(=O)Cc3ccccc3Cl)cc2cn1` [Compound 84, 2-(2-chlorophenyl)-N-(3-(2-methoxyethoxy)-5-sulfamoylisoquinolin-7-yl)acetamide], the IC50 fell in the range of 50 to 200 nM.

As to `NS(=O)(=O)c1cc(NC(=O)Cc2ccccc2Cl)cc2cnc(Cl)cc12` [Compound 5, N-(3-chloro-5-sulfamoylisoquinolin-7-yl)-2-(2-chlorophenyl)acetamide], the IC50 was in the range of 50 to 200 nM.

As for `NS(=O)(=O)c1cc(NC(=O)Cc2ccccc2Cl)cc2c(C(F)(F)F)nccc12` [Compound 29, 2-(2-chlorophenyl)-N-(-5-sulfamoyl-1-(trifluoromethyl)isoquinolin-7-yl)acetamide], the half-maximal inhibitory concentration (IC50) is 10 to 50 nM.

Consider `COc1nccc2c(S(N)(=O)=O)cc(NC(=O)Cc3c(F)cccc3Cl)cc12` [Compound 26, 2-(2-chloro-6-fluorophenyl)-N-(1-methoxy-5-sulfamoylisoquinolin-7-yl)acetamide], for which the IC50 was less than 10 nM.

With `CN1CCN(c2cc3c(S(N)(=O)=O)cc(NC(=O)Cc4ccccc4Cl)cc3cn2)CC1` [Compound 79, 2-(2-chlorophenyl)-N-(3-(4-methylpiperazin-1-yl)-5-sulfamoylisoquinolin-7-yl)acetamide], the IC50 fell in the range of 50 to 200 nM.

On to `COc1ccc2c(S(N)(=O)=O)cc(NC(=O)Cc3ccccc3Cl)cc2n1` [Compound 58, 2-(2-chlorophenyl)-N-(2-methoxy-5-sulfamoylquinolin-7-yl)acetamide], for which the IC50 is 50 to 200 nM.

For `NS(=O)(=O)c1cc(NC(=O)Cc2ccccc2Cl)cc2c1CCN(CC1CC1)C2` [Compound 111], the IC50 was 200 to 5000 nM.

With `NS(=O)(=O)c1cc(NC(=O)Cc2ccccc2Cl)cc2c(CF)nccc12` [Compound 56], the IC50 fell in the range of 50 to 200 nM.

`NS(=O)(=O)c1cc(NC(=O)Cc2ccccc2Cl)cc2c(Cl)nccc12` [Compound 2, N-(1-chloro-5-sulfamoylisoquinolin-7-yl)-2-(2-chlorophenyl)acetamide]: the IC50 lay in the range of 10 to 50 nM.

On to `CCOc1nccc2c(S(N)(=O)=O)cc(NC(=O)Cc3ccccc3Cl)cc12` [Compound 8, 2-(2-chlorophenyl)-N-(1-ethoxy-5-sulfamoylisoquinolin-7-yl)acetamide], for which the IC50 lay in the range of 10 to 50 nM.

Turning to `NS(=O)(=O)c1cc(NC(=O)Cc2ccccc2Cl)cc2c(Oc3ccc(F)cc3)nccc12` [Compound 31, 2-(2-chlorophenyl)-N-(1-(4-fluorophenoxy)-5-sulfamoylisoquinolin-7-yl)acetamide], the IC50 is 10 to 50 nM.

For `N#Cc1cc2c(S(N)(=O)=O)cc(NC(=O)Cc3ccccc3Cl)cc2cn1` [Compound 20, 2-(2-chlorophenyl)-N-(3-cyano-5-sulfamoylisoquinolin-7-yl)acetamide], the IC50 lay in the range of 10 to 50 nM.

As for `NS(=O)(=O)c1cc(NC(=O)Cc2ccccc2Cl)cc2cc(Cl)ncc12` [Compound 59, N-(3-chloro-8-sulfamoylisoquinolin-6-yl)-2-(2-chlorophenyl)acetamide], the IC50 lay within 50 to 200 nM.

As for `NS(=O)(=O)c1cc(NC(=O)Cc2ccccc2Cl)cc2c1CCN(C1COC1)C2` [Compound 123, 2-(2-chlorophenyl)-N-(2-(oxetan-3-yl)-5-sulfamoyl-1,2,3,4-tetrahydroisoquinolin-7-yl)acetamide], the IC50 lay within 200 to 5000 nM.

In the case of `NS(=O)(=O)c1cc(NC(=O)Cc2ccccc2Cl)cc2c(OCc3ccc(F)cc3)nccc12` [Compound 32, 2-(2-chlorophenyl)-N-(1-((4-fluorobenzyl)oxo)-5-sulfamoylisoquinolin-7-yl)acetamide], the IC50 lay in the range of 10 to 50 nM.

With `COc1ccc(Nc2cc3c(S(N)(=O)=O)cc(NC(=O)Cc4ccccc4Cl)cc3cn2)cc1` [Compound 81, 2-(2-chlorophenyl)-N-(3-((4-methoxyphenyl)amino)-5-sulfamoylisoquinolin-7-yl)acetamide], the IC50 was in the range of 200 to 5000 nM.

Take `NS(=O)(=O)c1cc(NC(=O)Cc2ccccc2Cl)cc2c(Nc3ccc(F)cc3)nccc12` [Compound 52, 2-(2-chlorophenyl)-N-(1-((4-fluorophenyl)amino)-5-sulfamoylisoquinolin-7-yl)acetamide]: the IC50 lay in the range of 200 to 5000 nM.

On to `Nc1nccc2c(S(N)(=O)=O)cc(NC(=O)Cc3ccccc3Cl)cc12` [Compound 51, N-(1-amino-5-sulfamoylisoquinolin-7-yl)-2-(2-chlorophenyl)acetamide], for which the IC50 fell in the range of 200 to 5000 nM.

For the compound `NS(=O)(=O)c1cc(NC(=O)Cc2ccccc2Cl)cc2c1CCN(C(=O)OC1CC1)C2` [Compound 101, cyclopropyl-7-(2-(2-chlorophenyl)acetamido)-5-sulfamoyl-3,4-dihydroisoquinoline-2(1H)-carboxylate], the IC50 is 10 to 50 nM.

For the compound `CC(=O)N1CC(Oc2nccc3c(S(N)(=O)=O)cc(NC(=O)Cc4ccccc4Cl)cc23)C1` [Compound 33, N-(1-((1-acetylazetidin-3-yl)oxo)-5-sulfamoylisoquinolin-7-yl)-2-(2-chlorophenyl)acetamide], the IC50 is 10 to 50 nM.

Take `COc1nccc2c(S(N)(=O)=O)cc(NC(=O)Cc3cccc(F)c3Cl)cc12` [Compound 97, 2-(2-chloro-3-fluorophenyl)-N-(1-methoxy-5-sulfamoylisoquinolin-7-yl)acetamide]: the IC50 fell in the range of 50 to 200 nM.

As to `NS(=O)(=O)c1cc(NC(=O)Cc2ccccc2Cl)cc2c(OC3CC3)nccc12` [Compound 10, 2-(2-chlorophenyl)-N-(1-cyclopropoxy-5-sulfamoylisoquinolin-7-yl)acetamide], the IC50 is 10 to 50 nM.

For the compound `NS(=O)(=O)c1cc(NC(=O)Cc2ccccc2Cl)cc2c1CCN(C(=O)C1CCC1)C2` [Compound 107], the IC50 is 10 to 50 nM.

On to `CN(C)c1ccc2c(S(N)(=O)=O)cc(NC(=O)Cc3ccccc3Cl)cc2n1` [Compound 88, 2-(2-chlorophenyl)-N-(2-(dimethylamino)-5-sulfamoylquinolin-7-yl)acetamide], for which the IC50 lay within 50 to 200 nM.

Consider `NS(=O)(=O)c1cc(NC(=O)Cc2ccccc2Cl)cc2ccc(F)nc12` [Compound 38, 2-(2-chlorophenyl)-N-(2-fluoro-8-sulfamoylquinolin-6-yl)acetamide], for which the IC50 lay within 50 to 200 nM.

For orientation: IC50 means the concentration at which inhibition is half-maximal.
